Assay results published in patent US7625897B2, “Non-nucleoside reverse transcriptase inhibitors” (Roche Palo Alto LLC, priority 2005, dated 2009).
Read-outs that look alike come from different tables or passages of the source.

Experiments:
[1] = biological target: HIV-1 RT (Human immunodeficiency virus type 1 group M subtype B, UniProt P03366); test: HIV Reverse Transcriptase Assay: Inhibitor IC50 determination; format: biochemical; conditions: purified recombinant enzyme, poly(rA)/oligo(dT)16 template-primer, read-out: HIV-RT IC50 RT
Method: HIV Reverse Transcriptase Assay: Inhibitor IC50 determination
HIV-1 RT assay was carried out in 96-well Millipore MultiScreen MADVNOB50 plates using purified recombinant enzyme and a poly(rA)/oligo(dT)16 template-primer in a total volume of 50 μL. The assay constituents were 50 mM Tris/HCl, 50 mM NaCl, 1 mM EDTA, 6 mM MgCl2, 5 μM dTTP, 0.15 μCi [^3H] dTTP, 5 μg/ml poly (rA) pre annealed to 2.5 μg/ml oligo (dT)16 and a range of inhibitor concentrations in a final concentration of 10% DMSO. Reactions were initiated by adding 4 nM HIV-1 RT and after incubation at 37° C. for 30 min, they were stopped by the addition of 50 μl ice cold 20% TCA and allowed to precipitate at 4° C. for 30 min. The precipitates were collected by applying vacuum to the plate and sequentially washing with 3×200 μl of 10% TCA and 2×200 μl 70% ethanol. Finally, the plates were dried and radioactivity counted in a Packard TopCounter after the addition of 25 μl scintillation fluid per well. IC50's were calculated by plotting % inhibition versus log10 inhibitor concentrations.

Row | Structure (SMILES) | melting point [°C] | IC50 ([1]; TABLE I) [nM] | IC50 ([1]; TABLE II) [nM]
1 | CC1CC(Cc2ccc(Cl)c(Oc3cc(Cl)cc(C#N)c3)c2F)=NNC1=O (stereo in doubt) [Compound I-22, 3-chloro-5-[6-chloro-2-fluoro-3-((S)-5-methyl-6-oxo-1,4,5,6-tetrahydro-pyridazin-3-ylmethyl)-phenoxy]-benzonitrile] | 156.5 to 157.2 | 17.7 | 
2 | CC1CC(Cc2ccc(Cl)c(Oc3cc(Cl)cc(Br)c3)c2F)=NNC1=O (stereo in doubt) [Compound I-23, (S)-6-[3-(3-Bromo-5-chloro-phenoxy)-4-chloro-2-fluoro-benzyl]-4-methyl-4,5-dihydro-2H-pyridazin-3-one] | 148.2 to 151 | 14.3 | 
3 | C[C@@H]1NC(Cc2ccc(Cl)c(Oc3cccc(Br)c3)c2)=NNC1=O [Compound I-1, (S)-3-[3-(3-Bromo-phenoxy)-4-chloro-benzyl]-5-methyl-4,5-dihydro-1H-[1,2,4]triazin-6-one] |  | 4520 | 
4 | C[C@@H]1NC(Cc2ccc(Cl)c(Oc3cc(Br)cc(Br)c3)c2F)=NNC1=O [Compound I-2, (S)-3-[4-Chloro-3-(3,5-dibromo-phenoxy)-2-fluoro-benzyl]-5-methyl4,5-dihydro-1H-[1,2,4]triazin-6-one] | 88 to 91.5 | 165 | 
5 | C[C@H]1NC(Cc2ccc(Cl)c(Oc3cc(Br)cc(Br)c3)c2F)=NNC1=O [Compound I-3, (R)-3-[4-Chloro-3-(3,5-dibromo-phenoxy)-2-fluoro-benzyl]-5-methyl-4,5-dihydro-1H-[1,2,4]triazin-6-one] | 75.2 to 79.1 | 10.7 | 
6 | CC1OC(Cc2ccc(Cl)c(Oc3cccc(Br)c3)c2)=NNC1=O (stereo not drawn) [Compound I-4, 2-[3-(3-Bromo-phenoxy)-4-chloro-benzyl]-6-methyl-4H-[1,3,4]oxadiazin-5-one] |  | 51.5 | 
7 | CC1OC(Cc2ccc(Cl)c(Oc3cc(Cl)cc(Br)c3)c2F)=NNC1=O (stereo not drawn) [Compound I-6, 2-[3-(3-Bromo-5-chloro-phenoxy)-4-chloro-2-fluoro-benzyl]-6-methyl-4H-[1,3,4]oxadiazin-5-one] |  | 24.7 | 
8 | CC1OC(Cc2ccc(Cl)c(Oc3cc(Br)cc(Br)c3)c2F)=NNC1=O (stereo not drawn) [Compound I-7, 2-[4-Chloro-3-(3,5-dibromo-phenoxy)-2-fluoro-benzyl]-6-methyl-4H-[1,3,4]oxadiazin-5-one] | 174.2 to 176.1 | 24.5 | 
9 | CC1OC(Cc2ccc(Cl)c(Oc3cc(Cl)cc(C#N)c3)c2F)=NNC1=O (stereo not drawn) [Compound I-8, 3-Chloro-5-[6-chloro-2-fluoro-3-(6-methyl-5-oxo-5,6-dihydro-4H-[1,3,4]oxadiazin-2-ylmethyl)-phenoxy]-benzonitrile] |  | 13.6 | 
10 | CC1OC(Cc2ccc(Cl)c(Oc3cc(C#N)cc(C#N)c3)c2F)=NNC1=O (stereo not drawn) [Compound I-9, 5-[6-chloro-2-fluoro-3-(6-methyl-5-oxo-5,6-dihydro-4H-[1,3,4]oxadiazin-2-ylmethyl)-phenoxy]-isophthalonitrile] | 60.9 to 67.7 | 40.3 | 
11 | O=C1NN=C(Cc2ccc(Cl)c(Oc3cc(Br)cc(Br)c3)c2F)NC12CC2 [Compound I-10, 5-[4-Chloro-3-(3,5-dibromo-phenoxy)-2-fluoro-benzyl]-4,6,7-triaza-spiro[2.5]oct-5-en-8-one] | 90 to 95 | 66 | 
12 | CC1(C)OC(Cc2ccc(Cl)c(Oc3cccc(Br)c3)c2)=NNC1=O [Compound I-11, 2-[3-(3-Bromo-phenoxy)4-chloro-benzyl]-6,6-dimethyl-4H-[1,3,4]oxadiazin-5-one] |  | > 10000 | 
13 | CCC1OC(Cc2ccc(Cl)c(Oc3cccc(Br)c3)c2)=NNC1=O (stereo not drawn) [Compound I-12, 2-[3-(3-Bromo-phenoxy)-4-chloro-benzyl]-6-ethyl-4H-[1,3,4]oxadiazin-5-one] |  | 212 | 
14 | CC1(C)OC(Cc2ccc(Cl)c(Oc3cccc(C#N)c3)c2)=NNC1=O [Compound I-13, 3-[2-Chloro-5-(6,6-dimethyl-5-oxo-5,6-dihydro-4H-[1,3,4]oxadiazin-2-ylmethyl)-phenoxy]-benzonitrile] | 94.1 to 95.3 | 9490 | 
15 | CCC1OC(Cc2ccc(Cl)c(Oc3cccc(C#N)c3)c2)=NNC1=O (stereo not drawn) [Compound I-14, 3-[2-Chloro-5-(6-ethyl-5-oxo-5,6-dihydro4H-[1,3,4]oxadiazin-2-ylmethyl)-phenoxy]-benzonitrile] |  | 128 | 
16 | C[C@H]1NC(Cc2ccc(Cl)c(Oc3cc(C#N)cc(C(F)F)c3)c2F)=NNC1=O [Compound I-16, 3-[6-Chloro-2-fluoro-3-((R)-5-methyl-6-oxo-1,4,5,6-tetrahydro-[1,2,4]triazin-3-ylmethyl)-phenoxy]-5-difluoromethyl-benzonitrile] |  | 15.3 | 
17 | CC[C@H]1NC(Cc2ccc(Cl)c(Oc3cc(Cl)cc(C#N)c3)c2F)=NNC1=O [Compound I-17, 3-Chloro-5-[6-chloro-3-((R)-5-ethyl-6-oxo-1,4,5,6-tetrahydro-[1,2,4]triazin-3-ylmethyl)-2-fluoro-phenoxy]-benzonitrile] |  | 13 | 
18 | C[C@@H]1NC(Cc2ccc(Cl)c(Oc3cc(Cl)cc(C#N)c3)c2F)=NNC1=O [Compound I-18, 3-Chloro-5-[6-chloro-2-fluoro-3-(5-methyl-6-oxo-1,4,5,6-tetrahydro-[1,2,4]triazin-3-ylmethyl)-phenoxy]-benzonitrile] |  | 11.9 | 
19 | Cc1ccc(CC2=NNC(=O)[C@@H](C)N2)c(F)c1Oc1cc(C#N)cc(C(F)F)c1 [Compound I-19, 3-Difluoromethyl-5-[2-fluoro-6-methyl-3-((R)-5-methyl-6-oxo-1,4,5,6-tetrahydro-[1,2,4]triazin-3-ylmethyl)-phenoxy]-benzonitrile] |  | 18 | 
20 | C[C@H]1CC(Cc2ccc(Cl)c(Oc3cccc(Br)c3)c2)=NNC1=O [Compound I-20, (S)-6-[3-(3-Bromo-phenoxy)4-chloro-benzyl]-4-methyl-4,5-dihydro-2H-pyridazin-3-one] |  | 65.4 | 
21 | C[C@H]1CC(Cc2ccc(Cl)c(Oc3cccc(C#N)c3)c2)=NNC1=O [Compound I-21, 3-[2-chloro-5-((S)-5-methyl-6-oxo-1,4,5,6-tetrahydro-pyridazin-3-ylmethyl)-phenoxy]-benzonitrile] |  | 46.9 | 
22 | O=C1CCC(Cc2ccc(Cl)c(Oc3ccccc3)c2)=NN1 [Compound I-24, 6-(4-Chloro-3-phenoxy-benzyl)-4,5-dihydro-2H-pyridazin-3-one] |  | 2630 | 
23 | C[C@H]1NC(Cc2ccc(Br)c(Oc3cc(C#N)cc(C(F)F)c3)c2F)=NNC1=O [Compound I-25, 3-[6-Bromo-2-fluoro-3-((R)-5-methyl-6-oxo-1,4,5,6-tetrahydro-[1,2,4]triazin-3-ylmethyl)-phenoxy]-5-difluoromethyl-benzonitrile] | 231.5 to 233 | 11.7 | 
24 | CC1(C)NC(Cc2ccc(Cl)c(Oc3cc(Cl)cc(C#N)c3)c2F)=NNC1=O [Compound I-27] |  | 7070 | 
25 | N#Cc1cc(Cl)cc(Oc2c(Cl)ccc(CC3=NNC(=O)C(C(F)(F)F)N3)c2F)c1 (stereo not drawn) [Compound I-29] |  | 26.9 | 
26 | Cc1nc(Cc2ccc(Cl)c(Oc3cccc(Br)c3)c2)n[nH]c1=O [II-1] |  |  | 331
27 | Cc1nc(Cc2ccc(Cl)c(Oc3cc(Br)cc(C#N)c3)c2F)n[nH]c1=O [II-6, 3-Bromo-5-[6-chloro-2-fluoro-3-(5-methyl-6-oxo-1,6-dihydro-[1,2,4]triazin-3-ylmethyl)-phenoxy]-benzonitrile] |  |  | 32.5
